For data set [1], the system named is dimethylnitrosamine induced liver fibrosis. Particulars: cited from earlier work.
Data set [2] concerns the target T1, human ALK5 (ALK5 T204D kinase domain) (Homo sapiens, UniProt P36897, T204D).
T1 construct: The kinase domain of human ALK5 (amino acids 200-503); made in house; host or cells: insect cells (baculovirus)
T1 sequence (P36897 200-503 T204D): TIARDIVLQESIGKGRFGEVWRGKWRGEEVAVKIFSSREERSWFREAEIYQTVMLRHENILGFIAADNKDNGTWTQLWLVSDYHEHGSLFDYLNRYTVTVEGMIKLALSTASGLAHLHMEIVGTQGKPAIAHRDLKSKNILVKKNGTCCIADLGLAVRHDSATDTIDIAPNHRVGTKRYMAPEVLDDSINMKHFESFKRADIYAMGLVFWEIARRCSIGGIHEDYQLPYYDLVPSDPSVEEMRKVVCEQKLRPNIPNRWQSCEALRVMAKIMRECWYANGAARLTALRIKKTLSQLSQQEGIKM
Description: ALK5 kinase assay, [33P] phosphate incorporation into casein. In kind it is biochemical. Conditions: casein substrate, 1 μM unlabelled ATP. The method, then: The kinase activity of ALK5 is assessed by measuring radiolabelled phosphate [33P] incorporation in to the generic substrate, casein. The kinase domain of human ALK5 (amino acids 200-503) is fused to an N-terminal histidine tag. The kinase activity of ALK5 is rendered constitutive via point mutation at amino acid 204 (threonine to aspartate modification, ALK5 T204D) and the kinase construct is engineered to be expressed from a baculovirus expression construct in insect cells. The purified, recombinantly-expressed histidine-tagged ALK5 T204D protein is dissolved at 5.4 mg/ml in 50 mM Tris-HCl pH 8.0, 150 mM NaCl, 5 mM DTT. ALK5 T204D is dissolved to 2.5 μg/ml in assay buffer (Assay buffer: 20 mM Tris-HCl pH 7.4, 10 mM MgCl2, 2 mM MnCl2) on the day of use.
Test compounds and reference compounds are dissolved in assay buffer without DTT containing 5% (v/v) DMSO. Stock solutions of test and reference compounds are diluted in assay buffer with DTT (1.25 mM) containing 4.5% (v/v) DMSO. 10 μl of test or reference compound are added to the appropriate wells of 96 well U-bottomed plate. Total enzyme activity is determined by measuring ALK5 T204D activity in the absence of ALK5 kinase inhibitor reference compounds. Non-specific binding (NSB) is determined by measuring the activity of ALK5 T204D in the presence of ALK5 kinase inhibitor reference compounds. 10 μl of dephosphorylated casein stock solution (dephosphorylated casein is dissolved in ddH2O at 20 mg/ml) is added per well (200 μg/well final assay concentration). 20 μl of ALK5 T204D (2.5 μg/ml solution) is added per well (50 ng/well final assay concentration). The plates are left to incubate at room temperature for 10 minutes.
10 μl of ATP mix is added to the well to initiate the reaction (0.66 nM [^33P]ATP/1 μM unlabelled ATP/well final assay concentration). The ATP mix is prepared as follows, unlabelled ATP (3 mM) is dissolved in ddH2O and pH adjusted to 7.4. The stock concentration of [^33P]ATP is 10 μCi/μl. The appropriate volume of [^33P]ATP is added to unlabelled ATP solution such that the final assay concentration per well is 0.1 μCi. Following addition of the ATP mix, the plates are incubated at room temperature for 50 minutes. The kinase reaction is terminated by the addition of 50 μL Stop Buffer (20 mM Tris-HCl pH 7.4, 10 mM EDTA).
75 μl/well from the reaction plate is transferred to a Multiscreen-IP plate (MultiScreen-IP plates are prepared by added 50 μL of 70% (v/v) ethanol per well and incubated for 5 minutes at room temperature. The ethanol is removed by aspiration via a MultiScreen HTS Vacuum Manifold unit (Millipore, Cat no: MSVMHT500). The plates are washed twice by adding 200 μl/well ddH2O). The MultiScreen-IP plate is incubated at room temperature for 30 minutes to allowing binding of casein to the plate. The MultiScreen-IP plates are washed three times by adding 200 μl/well 100 mM phosphoric acid solution and the gasket is carefully removed from the back of the MultiScreen-IP plate and the plate dried in the oven for 30 minutes. The MultiScreen-IP plate is backsealed, 50 μL of Microscint™20 is added, then the plates are topsealed and radiolabelled casein detected and quantified on a TopCount™ plate-reader using the ^33P scintillation protocol.

Data set [3] has as its system bleomycin-treated rats. Particulars: cited from earlier work.
[4] abbreviates: given therapeutically to rat, 3 weeks treatment.

With `c1ccc(-c2cc(-c3cn[nH]c3-c3ccccn3)ccn2)cc1` [GW6604], the side effects result in data set [1] (during the 3 weeks treatment) is “no obvious side effects”. Besides, in data set [1] (setting [4]), the “inhibition of extracellular matrix deposition” value was 60% and the prevented death rate is on record as 40%.

As usually defined, the IC50 is the point on the concentration scale where inhibition reaches its midpoint. Low readings indicate inhibition by little substance, high ones a need for much substance. In data set [2], `Cc1cccc(-c2cc(-c3cncc(-c4ccc(CN5CCN(C(C)C)CC5)cc4)c3)cc(N)n2)n1` [Example 2.71, 5″-[4-(4-Isopropyl-piperazin-1-ylmethyl)-phenyl]-6-methyl-[2,2′;4′,3″]terpyridin-6′-ylamine] displayed a concentration for half-maximal inhibition (IC50) of 74 nM.

Regarding `CC1(C)CN(Cc2ccc(-c3cncc(-c4cc(-c5ccccn5)nc(C(C)(C)O)c4)c3)cc2)CCN1` [Example 2.92, 2{-5″-[4-(3,3-Dimethyl-piperazin-1-ylmethyl)-phenyl]-[2,2′;4′,3″]terpyridin-6′-yl}-propan-2-ol], in data set [2], the 50% inhibitory concentration (IC50) came out at 35 nM.

B1: Follistatin: an antagonist of activin signalling (protein, UniProt P19883 30-344, looked up)
Follistatin: GNCWLRQAKNGRCQVLYKTELSKEECCSTGRLSTSWTEEDVNDNTLFKWMIFNGGAPNCIPCKETCENVDCGPGKKCRMNKKNKPRCVCAPDCSNITWKGPVCGLDGKTYRNECALLKARCKEQPELEVQYQGRCKKTCRDVFCPGSSTCVVDQTNNAYCVTCNRICPEPASSEQYLCGNDGVTYSSACHLRKATCLLGRSIGLAYEGKCIKAKSCEDIQCTGGKKCLWDFKVGRGRCSLCDELCPDSKSDEPVCASDNATYASECAMKEAACSSGVLLEVKHSGSCNSISEDTEEEEEDEDQDYSFPISSILEW
Take B1: in data set [3], the lung fibrosis result is reported as “attenuated”; the “number of macrophages and neutrophils in bronchoalveolar lavage” value was “significantly reduced”.

The record behind these values is US8343966B2, “Organic compounds” (Novartis AG, priority 2008, dated 2013).
